We go through one molecule from patent publication US20250352448A1, “COMPOSITION FOR IMPROVING SKIN CONDITIONS” (AJINOMOTO CO., INC., priority 2022, published 2025).

The test concerns caspase-14. Nature of the test: caspase-14 production in amino acid-depleted epidermal keratinocytes (ELISA). To be noted: human skin-simulating medium 2, cultured 4 days. It counts as cell-based. An excerpt: Culture media ([…] medium) used for cell culture contain amino acids necessary for cells to survive and grow. […] human skin-simulating medium 2: The essential amino acids in D-MEM (Life Technologies 21068-028) were changed to the concentrations shown in Table 10, human skin-simulating medium 2. […] The next day, the medium was replaced with the medium of evaluation condition (5)-(7). • Evaluation condition (5): Human skin-simulating medium 2 (hereinafter the sample evaluated under evaluation condition (5) is referred to as “Control 3”). • Evaluation condition (6): Medium obtained by adding His (final concentration 0.2 mM), Leu (final concentration 0.8 mM), Val (final concentration 0.8 mM) to human skin-simulating medium 2 (hereinafter the sample evaluated under evaluation condition (6) is referred to as “Example 3”). • Evaluation condition (7): Medium obtained by adding His (final concentration 0.2 mM) to human skin-simulating medium 2 (hereinafter the sample evaluated under evaluation condition (7) is referred to as “Example 4”). […] The protein extract of the above-mentioned 4 was diluted with water, and the protein was quantified using Micro BCA Protein Assay Kit (Thermo Fisher Scientific 23235). • 6. The amount of caspase-14 determined in the above-mentioned 4 was normalized by the amount of protein determined in the above-mentioned 5. • 7. […]

On to `N[C@@H](Cc1c[nH]cn1)C(=O)O` [His, histidine], for which, where the note is “Experimental Example 2-3, FIG. 3, final His 0.2, Leu 0.8, Val 0.8 mM or His 0.2 mM alone”, the “amount of caspase-14 (normalized by protein amount, Control 3 as 100%)” value was “remarkably increased”. In addition, the “amount of caspase-14 (normalized by protein amount, Control 7 as 100%)” value (Experimental Example 3-3-1, FIG. 6A, final His 0.2, Leu 0.8, Val 0.8 mM, Val 0.8 mM alone or His 0.2 mM alone) is “remarkably increased”.
